Assay results reported in PubChem BioAssay AID179 (DTP/NCI, 2004).
Active and inactive are the calls of the source.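 Rule for the calls: active = compounds giving half or more protection of infected cells from virus-caused growth loss, again on retest; inactive = the rest.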 Where a SMILES comes first, the peptide text is derived from it. The star is where a group is joined. Trt = c1ccc(C(c2ccccc2)(c2ccccc2)*)cc1; Benzhydryl = c1ccc(C(c2ccccc2)*)cc1; Cbz = O=C(OCc1ccccc1)*; OtBu = CC(C)(C)O*

Tested on: CEM cells HIV-1 protection, formazan growth assay
Experiment: NCI AIDS Antiviral Assay
Settings: for IC50: measured here: growth of uninfected CEM cells
Method in brief: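 Five concentrations of each compound were applied to infected and uninfected human CEM cells. Protection from HIV-1 was judged from growth measured with a soluble formazan assay.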

## Cc1cc(NS(=O)(=O)c2ccc(N=Nc3c(Nc4ccccc4)nn(-c4ccc(S(=O)(=O)Nc5ccncn5)cc4)c3C)cc2)no1
  EC50: > 200 µM
  IC50: > 200 µM

## COC1/C=C/OC2(C)Oc3c(C)c(O)c4c(O)c(c(/C=N/Nc5ccc([N+](=O)[O-])cc5[N+](=O)[O-])c(O)c4c3C2=O)NC(=O)C(C)=C/C=C/C(C)C(O)C(C)C(O)C(C)C(OC(C)=O)C1C (centres undefined)
  EC50: > 200 µM
  IC50: 7.08 µM

## CCOC(=O)/C(N=Nc1ccc(-n2c(C)nc3ccc(Br)cc3c2=O)cc1)=C(/C)O
  EC50: > 200 µM
  IC50: 39.8 µM

## COP1(=O)CC2C(Cl)(Cl)C2(C)C1 (centres undefined)
  outcome: inactive

## CN1CCN(C(=S)N(C(=O)c2ccc(Cl)cc2)c2ccccc2)CC1
  EC50: > 13.8 µM
  IC50: > 13.8 µM

## CC(=O)NNC(=S)N/C=C(/C(=O)c1ccccc1)c1ccccc1
  EC50: > 479 µM
  IC50: 302 µM

## COC(=O)Cc1c(-c2c(CC(=O)OC)c3ccccc3n2C2OC(COC(C)=O)C(OC(C)=O)C(OC(C)=O)C2OC(C)=O)[nH]c2ccccc12 (centres undefined)
  EC50: > 200 µM
  IC50: 26.3 µM

## C/C(N=NS(=O)(=O)c1ccc([N+](=O)[O-])cc1)=C1\C=CC=CN1O
  outcome: inactive

## CC1=CC(=O)/C(=C/n2c(=S)[nH]c3cc(C)ccc32)C(=O)O1
  EC50: > 200 µM
  IC50: 195 µM

## OCC(Oc1ccccc1)C(O)C(O)C(CO)Oc1ccccc1 (centres undefined)
  EC50: > 200 µM
  IC50: > 200 µM

## O=c1c(SCc2ccccc2)c(SCc2ccccc2)cnn1-c1ccccc1
  EC50: > 24 µM

## COc1cc2c(c([N+](=O)[O-])c1)NC(=O)CC(C)S2 (centres undefined)
  EC50: 95.5 µM
  IC50: 148 µM

## COC(=O)c1ccc(Cl)cc1NC(=O)C1CCCCC1
  outcome: inactive

## CCOC(=O)C1(C(=O)OCC)C[C@@H](C)[C@@H](O)C1
  EC50: > 200 µM
  IC50: > 200 µM

## COC(=O)C(Cc1ccc2c(c1)OCO2)(NC(=O)c1ccccc1)P(=O)(OC)OC (centres undefined)
  EC50: > 575 µM
  IC50: > 575 µM

## CC1=C(C(=O)Nc2cccc(Cl)c2)C(c2ccccc2O)C(C(=O)Nc2cccc(Cl)c2)=C(C)N1
  EC50: > 50.1 µM
  IC50: 12 µM

## COC(=O)C(CCCCCCCC(C(=O)OC)c1nc2n(c1O)C(=N)N=N2)c1nc2n(c1O)C(=N)N=N2 (centres undefined)
  EC50: > 7.41 µM
  IC50: > 7.41 µM

## O=c1oc2ccc([N+](=O)[O-])cc2cc1Br
  EC50: > 145 µM
  IC50: > 145 µM

## CCCCOC(=O)NC(=O)c1cc2cc(Cl)cc(Cl)c2oc1=O
  EC50: > 13.8 µM
  IC50: > 13.8 µM

## CC(C)Oc1cc2c(c3oc(=O)cc(CCl)c13)C(=O)[C@H](C)[C@@H](C)O2
  EC50: > 200 µM
  IC50: 5.37 µM

## O=Cc1cc(C(=O)Nc2ccc(/C=C/c3ccc(NC(=O)c4cc(C=O)c5cccnc5c4O)cc3S(=O)(=O)O)c(S(=O)(=O)O)c2)c(O)c2ncccc12
  EC50: 24.5 µM
  IC50: > 100 µM

## N#Cc1c(-c2ccccc2)c(-c2ccccc2)nn(CC(=O)O)c1=O
  EC50: > 759 µM
  IC50: 47.9 µM

## COC(=O)Cc1cccc2c1CCC2=O
  EC50: > 200 µM
  IC50: > 200 µM

## CC(C)(C)OC(=O)CNC(=O)C(Cc1ccccc1)NC(=O)C(CSC(c1ccccc1)(c1ccccc1)c1ccccc1)NC(=O)CNC(=O)C(Cc1ccccc1)NC(=O)CNC(=O)C(CSC(c1ccccc1)c1ccccc1)NC(=O)C(CSC(c1ccccc1)(c1ccccc1)c1ccccc1)NC(=O)OCc1ccccc1 (centres undefined) (Cbz-C(Trt)C(Benzhydryl)GFGC(Trt)FG-OtBu; configuration not given here)
  EC50: > 8.32 µM
  IC50: > 8.32 µM

## Nc1nc(Cl)cc(NCC2(CO)CC(Cc3ccccc3)C2)n1 (centres undefined)
  EC50: > 20 µM
  IC50: 0.174 µM

## C/C=C(\C)c1cc(OC)c(C)c2c1C(=O)Oc1c(C)c(O)c(Cl)c(/C(C)=C/C)c1O2
  outcome: inactive

## C[C@@H]1N[C@@H](C)Cc2c(-c3ccc(O)c4ccccc34)c(O)cc(O)c21
  EC50: > 200 µM
  IC50: 30.9 µM

## Nc1nc(NCCOCP(=O)(O)O)c(N)c(=O)[nH]1
  EC50: > 200 µM
  IC50: > 200 µM

## CCCCC(CC)C(=O)OC(C)CN(CC(C)OC(=O)C(CC)CCCC)C(=O)C(C)OC(=O)C(CC)CCCC (centres undefined)
  outcome: inactive

## OCc1ccc2c(c1)CC1(C2)Cc2cc3c(cc2C1O)CCC3 (centres undefined)
  EC50: > 200 µM
  IC50: 1.82 µM
